The test system of test [1] is VEGF protein. Put plainly: Vitreal VEGF protein level in STZ-induced diabetic Long Evans rats. The class given is in vivo. Particulars: STZ diabetic LE rats, mini-osmotic pump, STZ/Veh 228, Veh/Veh 164. How it is done: Long Evans (LE) rats were treated with vehicle or streptozotocin (1×, 65 mg/kg). After 7 days, vehicle treated rats were treated further with a second vehicle and STZ treated diabetic rats were treated either with a second vehicle, Brimonidine (1 mg/kg/d) as a positive control, Panagonist A (300 ug/kg/d) or panagonist B (300 ug or 3 mg/kg/d) for another 3 wks using mini-osmotic pumps. Note that the synthesis of these two panagonists is known in the art. The panagonists have the following structure [drawing 1]
At end of the study, animals were sacrificed & vitreal VEGF protein level was measured as described earlier.
Long Evans rats were treated with vehicle or streptozotocin (1×, 65 mg/kg). After 7 days, vehicle treated rats were treated further with a second vehicle and STZ treated diabetic rats were treated either with a second vehicle, Brimonidine (1 mg/kg/d) as a positive control, or the Alpha 2B selective agonist, [drawing 2] (“2B Agonist”) (300 ug or 3 mg/kg/d) for another 3 wks using mini-osmotic pumps At end of the study, animals were sacrificed & vitreal VEGF protein level was measured as described earlier.

Test [2] deals with VEGF protein. Kind of test: VEGF protein levels in vitreous fluid of non-diabetic BN rats. Particulars: Mem 10 mg/kg/day or Bri 1 mg/kg/day for 28 days. The class given is in vivo, Brown Norway (BN) rats.
In test [3] the test system is VEGF protein. Put plainly: VEGF protein levels in retina of STZ-treated BN rats. Format: in vivo, Brown Norway (BN) rats. The following applies: 5 wks, Mem 10 mg/kg/day or Bri 1 mg/kg/day for 4 wks after 1 wk of STZ, STZ/Veh 719, Veh/Veh 482. How it is done:
(§1) Male Brown Norway (BN) rats were randomized into 4 different groups based on basal glucose and body weight. Using one time IP injection, one group of animals was treated with vehicle and other 3 groups were treated with 65 mg/kg streptozotocin (STZ). Within two days after STZ-treatment, blood glucose of the animals reached to 400 mg/dl from 100 mg/dl. After one wk of vehicle or STZ treatment, vehicle treated animals were further treated with a second vehicle for another 4 wks (Veh/Veh-35 D) and STZ treated animals were treated with either a second vehicle (STZ-35D/Veh-28D), Memantine, Mem (10 mg/kg/day) (STZ-35D/Mem-28D) or Brimonidine, Bri (1 mg/kg/day) for 4 wks (STZ-35D/Bri-28D) using mini osmotic pumps.

Test [4] concerns blood-retinal barrier (BRB). Put plainly: Retinal BRB breakdown in STZ-treated BN rats. Format: in vivo, Brown Norway (BN) rats. The following applies: 5 wks, Mem 10 mg/kg/day or Bri 1 mg/kg/day for 4 wks after 1 wk of STZ, STZ/Veh 22.9, Veh/Veh 9.1. How it is done: as §1
The test system of test [5] is VEGF protein. Put plainly: VEGF protein levels in vitreous fluid of STZ-treated BN rats. Format: in vivo, Brown Norway (BN) rats. The following applies: 5 wks, Mem 10 mg/kg/day or Bri 1 mg/kg/day for 4 wks after 1 wk of STZ, STZ/Veh 259, Veh/Veh 157. How it is done: as §1
[6] abbreviates: 300 ug/kg/d for 3 wks (1 wk after STZ).
The mark [7] stands for this setting: 3 mg/kg/d for 3 wks (1 wk after STZ).

The values below come from patent publication US20070203144A1, “Use of Memantine and Brimonidine to Attenuate Vitreoretinal Vascular Endothelial Growth Factor (VEGF) Protein Levels in Animals” (Allergan, Inc., priority 2006, published 2007).

For `S=c1[nH]cc(CC2CC=CC2)[nH]1` [2B Agonist], the figures for the “VEGF protein levels in vitreous fluid” value in the test with VEGF protein [1] (setting [6]) and in the test on VEGF protein [1] (setting [7]) were 148 pg/mL and 130 pg/mL, respectively.

On to `Brc1c(NC2=NCCN2)ccc2nccnc12` [Brimonidine, brimonidine], for which the “VEGF protein levels in vitreous fluid” value in the test on VEGF protein [1] (1 mg/kg/d for 3 wks (1 wk after STZ)) was 133 pg/mL; in the test on VEGF protein [5], 140 pg/mL. Also, in the test on VEGF protein [2], the “difference in vitreous fluid VEGF protein levels vs vehicle” value is “no difference”. For the same compound, the “VEGF protein levels in retina” value in the test on VEGF protein [3] turned out to be 455 pg/mg protein. The “BRB breakdown in retina” value in test [4] was 12.2 ul plasma/g retina dry weight/hr.

Regarding `CC12CC3CC(C)(C1)CC(N)(C3)C2` [Memantine, memantine], the “difference in vitreous fluid VEGF protein levels vs vehicle” value with VEGF protein [2] was “no difference”. For the same compound, the “VEGF protein levels in retina” value with VEGF protein [3] was 475 pg/mg protein. The “BRB breakdown in retina” value in test [4] was 11.9 ul plasma/g retina dry weight/hr. Moreover, the “VEGF protein levels in vitreous fluid” value in the test on VEGF protein [5] was 160 pg/mL.

As for `c1cnc2c(c1)CC[C@@H](Cc1c[nH]cn1)C2` [panagonist A], the “VEGF protein levels in vitreous fluid” value in the test with VEGF protein [1] (setting [6]) turned out to be 133 pg/mL.

With `Cc1cccc([C@@H](C)c2c[nH]c(=S)[nH]2)c1C` [panagonist B], the “VEGF protein levels in vitreous fluid” value in the test on VEGF protein [1] (setting [6]) is 122 pg/mL; in the test on VEGF protein [1] (setting [7]), 109 pg/mL.
